Reference: ChEMBL document CHEMBL3580586, “Novel azoles as potent and selective cannabinoid CB2 receptor agonists” (Bioorg Med Chem Lett, 2014)

Experiments:
[1] = species: Homo sapiens; experiment: Selectivity ratio of EC50 for human CB1 receptor to EC50 for human CB2 receptor
[2] = target: T1, Cannabinoid receptor 2 (Homo sapiens, UniProt P34972); experiment: Agonist activity at human CB2 receptor expressed in CHO-K1 cells assessed as inhibition of forskolin-stimulated cAMP production; format: functional, cell-based
[3] = species: Homo sapiens; experiment: Selectivity ratio of Ki for human CB1 receptor to Ki for human CB2 receptor
[4] = target: T2, Cannabinoid receptor 1 (Homo sapiens, UniProt P21554); experiment: Agonist activity at human CB1 receptor expressed in CHO-K1 cells assessed as inhibition of forskolin-stimulated cAMP production; format: functional, cell-based
[5] = target: T1, Cannabinoid receptor 2; experiment: Displacement of [3H]CP55940 from human CB2 receptor expressed in CHO-K1 cell membrane by competitive displacement assay; format: cell membranes
[6] = target: T2, Cannabinoid receptor 1; experiment: Displacement of [3H]CP55940 from human CB1 receptor expressed in CHO-K1 cell membrane by competitive displacement assay; format: cell membranes
[7] = Antioxidant activity assessed as inhibition of lipid peroxidation; format: physicochemical

T1 sequence (P34972 whole entry): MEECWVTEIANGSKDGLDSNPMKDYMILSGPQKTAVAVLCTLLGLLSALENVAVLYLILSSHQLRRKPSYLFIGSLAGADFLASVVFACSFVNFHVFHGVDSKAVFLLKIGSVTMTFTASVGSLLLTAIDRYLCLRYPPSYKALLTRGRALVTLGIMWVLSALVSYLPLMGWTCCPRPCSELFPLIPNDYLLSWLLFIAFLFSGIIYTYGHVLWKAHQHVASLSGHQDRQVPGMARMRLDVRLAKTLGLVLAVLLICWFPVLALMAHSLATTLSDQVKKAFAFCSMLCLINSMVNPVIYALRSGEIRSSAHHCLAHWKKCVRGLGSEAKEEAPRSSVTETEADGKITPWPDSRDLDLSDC
T2 sequence (P21554 whole entry): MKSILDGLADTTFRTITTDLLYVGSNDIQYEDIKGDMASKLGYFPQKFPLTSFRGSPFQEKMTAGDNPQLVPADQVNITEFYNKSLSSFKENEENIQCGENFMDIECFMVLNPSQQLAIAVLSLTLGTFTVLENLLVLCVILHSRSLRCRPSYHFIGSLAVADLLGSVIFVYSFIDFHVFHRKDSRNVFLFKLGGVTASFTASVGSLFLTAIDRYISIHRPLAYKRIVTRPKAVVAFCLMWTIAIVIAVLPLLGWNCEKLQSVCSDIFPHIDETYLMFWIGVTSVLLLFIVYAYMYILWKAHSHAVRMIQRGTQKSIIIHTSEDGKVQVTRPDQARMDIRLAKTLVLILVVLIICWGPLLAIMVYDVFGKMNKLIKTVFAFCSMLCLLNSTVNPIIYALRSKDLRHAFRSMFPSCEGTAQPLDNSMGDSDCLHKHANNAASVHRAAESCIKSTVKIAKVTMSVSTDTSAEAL

Row | Compound | Selectivity ratio [1] | EC50 [2] | Selectivity ratio [3] | EC50 [4] | Ki [5] | Ki ([6]; read-out: Ki) | Ki ([6]; cho-k1) | IC50 [7]
1 | CN1CCCCC1Cn1cc(C(=O)c2cc([N+](=O)[O-])ccc2I)c2ccccc21 (stereo not given) | 63 | 16.4 nM | 95 | 1040 nM | 21.8 nM | 2080 nM | – | –
2 | CCN(CC)C1(c2nc(-c3cc(C(C)(C)C)c(O)c(C(C)(C)C)c3)cs2)CCOCC1 | 56 | 72 nM | 43 | 4040 nM | 77.4 nM | 3300 nM | – | –
3 | CN(C)Cc1nc(-c2cc(C(C)(C)C)c(O)c(C(C)(C)C)c2)cs1 | – | – | – | – | 6240 nM | – | Not Active | –
4 | CC(C)(C)c1cc(-c2csc(C3(N4CCCCC4)CCOCC3)n2)cc(C(C)(C)C)c1O | 56 | 40 nM | 43 | 2260 nM | 49.7 nM | 2170 nM | – | –
5 | CC(C)(C)c1cc(-c2csc(C3(N)CCOCC3)n2)cc(C(C)(C)C)c1O | – | – | 2.6 | – | 2700 nM | 6960 nM | – | –
6 | CN(C)C1(c2nc(-c3cc(C(C)(C)C)c(O)c(C(C)(C)C)c3)co2)CCOCC1 | 32 | 43.6 nM | 16 | 1400 nM | 51.6 nM | 817 nM | – | –
7 | CN(C)C1(c2nc(-c3cc(C(C)(C)C)cc(C(C)(C)C)c3)cs2)CCOCC1 | – | – | 37 | – | 127 nM | 4710 nM | – | –
8 | CC(C)(C)c1cc(-c2csc(C3(N4CCOCC4)CCOCC3)n2)cc(C(C)(C)C)c1O | – | – | – | – | 177 nM | – | Not Active | –
9 | CN(C)C1(c2nc(-c3cc(C(C)(C)C)c(O)c(C(C)(C)C)c3)cs2)CCOCC1 | 64 | 42 nM | 30 | 2670 nM | 29.4 nM | 857 nM | – | 500 nM
10 | CN(C)C1(c2nc(-c3cc(C(C)(C)C)c(O)c(C(C)(C)C)c3)cs2)CCSCC1 | 40 | 59.1 nM | 29 | 2380 nM | 81.7 nM | 2340 nM | – | –
11 | CNC1(c2nc(-c3cc(C(C)(C)C)c(O)c(C(C)(C)C)c3)cs2)CCOCC1 | – | – | 16 | – | 144 nM | 2270 nM | – | –
